Measured values reported in US8633318B2, “Compounds for treatment or prevention of inflammation, an inflammatory disease, or an immune or an autoimmune disorder” (Proximagen Ltd, priority 2008, dated 2014).
pIC50: −log10 of the molar value.

Molecular target: T1, human SSAO (Homo sapiens, UniProt Q16853)
T1 construct: made in house
T1 sequence (Q16853 29-763 limits assumed): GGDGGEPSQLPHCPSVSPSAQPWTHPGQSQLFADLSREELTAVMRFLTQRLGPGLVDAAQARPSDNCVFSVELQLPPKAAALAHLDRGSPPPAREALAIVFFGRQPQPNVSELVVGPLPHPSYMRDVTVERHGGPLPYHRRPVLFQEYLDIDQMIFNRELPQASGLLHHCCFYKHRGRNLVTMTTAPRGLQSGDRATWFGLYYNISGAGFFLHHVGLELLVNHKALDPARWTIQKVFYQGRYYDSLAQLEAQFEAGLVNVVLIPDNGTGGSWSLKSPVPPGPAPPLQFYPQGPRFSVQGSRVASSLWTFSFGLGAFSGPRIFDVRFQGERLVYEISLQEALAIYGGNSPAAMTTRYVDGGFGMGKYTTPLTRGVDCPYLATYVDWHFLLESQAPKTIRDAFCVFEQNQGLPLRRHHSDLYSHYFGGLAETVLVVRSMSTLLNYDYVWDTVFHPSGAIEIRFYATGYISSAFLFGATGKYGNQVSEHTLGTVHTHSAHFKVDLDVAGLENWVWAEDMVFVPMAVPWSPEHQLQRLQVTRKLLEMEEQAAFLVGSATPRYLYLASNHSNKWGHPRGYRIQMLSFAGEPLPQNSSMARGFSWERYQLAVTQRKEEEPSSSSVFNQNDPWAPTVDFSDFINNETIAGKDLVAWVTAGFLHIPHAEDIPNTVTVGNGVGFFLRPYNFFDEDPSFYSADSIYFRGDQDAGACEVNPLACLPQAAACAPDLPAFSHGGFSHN
Assay: SSAO enzyme inhibition assay (Amplex Red/HRP coupled, benzylamine substrate)
Format: biochemical
Conditions: purified recombinantly expressed human SSAO; benzylamine 100 μM; about 60 minutes pre-incubation; room temperature
Experimental: Biological Assay of the SSAO Enzyme Inhibitors
All assays were performed in room temperature with purified recombinantly expressed human SSAO. Enzyme was prepared essentially as described in Öhman et al. (Protein Expression and Purification 2006, 46, 321-331). The enzyme activity was measured with benzylamine as substrate and utilized the production of hydrogen peroxide for detection. In a horseradish peroxidise (HRP) coupled reaction, hydrogen peroxide oxidation of 10-acetyl-3,7-dihydroxyphenoxazine produced resorufin, which is a highly fluorescent compound (Zhout and Panchuk-Voloshina. Analytical Biochemistry 1997, 253, 169-174; Amplex® Red Hydrogen Peroxide/peroxidise Assay kit, Invitrogen A22188).
Briefly, test compounds were dissolved in dimethyl sulfoxide (DMSO) to a concentration of 10 mM. Dose-response measurements were assayed by either creating 1:10 serial dilutions in DMSO to produce a 7 point curve or by making 1:3 serial dilutions in DMSO to produce 11 point curves. […] Fluorescence intensity was then measured at several time points (15 minutes, 20 minutes and 30 minutes) exciting at 544 nm and reading the emission at 590 nm). […] The inhibition was measured as % decrease of the signal compared to a control without inhibitor (only diluted DMSO). […] Data was fitted to a four parameter logistic model and IC50 values were calculated using the GraphPad Prism 4 or XLfit 4 programs.

Cc1ccc(-c2nn(C3CCOCC3)c3ccncc23)cc1 [Example 3, 3-(4-Methylphenyl)-1-(tetrahydro-2H-pyran-4-yl)-1H-pyrazolo[4,3-c]pyridine]
pIC50: 7.05

Clc1ccc(-c2nn(C3CCNCC3)c3ccncc23)cc1 [Example 5, 3-(4-Chlorophenyl)-1-piperidin-4-yl-1H-pyrazolo[4,3-c]pyridine]
pIC50: 6.92
